In data set [1] the test system is HT-29 xenograft tumors. Nature of the data set: Biodistribution study in HT-29 xenograft mouse model. The data set is classed as in vivo, mice. The method, then: Female SCID mice (5 weeks of age) received subcutaneous injections of HT-29 cells (5×10^6) suspended in Matrigel® into the flanks. When the tumor size reached 80 mm^3 (two weeks after injection), the mice were randomized into three groups and intravenously injected with 10 μCi (0.37 MBq) of the purified ^177Lu labeled conjugates via tail vein. The mice were sacrificed and the tissues were excised at 4, 24, and 72 hours post-injection time points. The blood, tumor, and excised tissues were weighed. The radioactivity for each sample was measured using a gamma counter. The percentage injected dose per gram (% ID/g) and the radioactivity ratios between tumor and non-targeted tissues were calculated.

For data set [2], the target named is T1, NTSR1 (Homo sapiens, UniProt P30989).
T1 construct: endogenous in cells; host or cells: HT-29 human colon cancer cells (ATCC)
Nature of the data set: In vitro competitive neurotensin receptor binding in HT-29 cells vs 177Lu-N1. As to conditions: unlabeled conjugates. The method, then: In Vitro Competitive Neurotensin Receptor Binding Studies
The IC50 for the unlabeled conjugates binding to the neurotensin receptors was determined using the HT-29 human colon cancer cell line. […]. Med. Biol., 42:816), served as the competitive radioligand for comparing the relative binding affinities of the conjugates. HT-29 cells (˜1×10^6) suspended in 100 μL of McCoy's 5A medium (pH 7.4, 4.8 mg/mL HEPES, and 2 mg/mL BSA) were incubated with 177Lu-N1 (100,000 cpm, 100 μL) at 37° C. for 45 minutes in the presence of the conjugates with predetermined concentrations (0.5 nM-1 μM) in 100 μL of medium. At the end of the incubation, the cells were centrifuged, aspirated, and washed with fresh medium (5×500 μL). The cell-associated radioactivity was measured using gamma counter and the IC50 values determined by nonlinear regression using GraphPad Prism 5. All measurements were in biological triplicate.

Data set [3] can be described thus: Distribution coefficient (Log D7.4) of the conjugates. The class given is physicochemical. The method, then:
Distribution Coefficient (Log D7.4) of the Conjugates The distribution coefficient was determined for each ^177Lu-labeled conjugate. In a 1.5 mL centrifuge tube, 0.5 mL of 1-octanol was added to 0.5 mL of PBS (pH 7.4) containing the radiolabeled peptide (500,000 cpm). The solution was vigorously vortexed for 2 minutes at room temperature and subsequently centrifuged to yield two immiscible layers. The radioactivity of the aliquots (100 μL) taken from each layer were quantified by the gamma counter and the Log D7.4 for each conjugates was calculated.

The target in data set [4] is T2, cathepsin B (human Liver) (Homo sapiens, UniProt P07858).
T2 construct: from tissue; host or cells: human liver
Nature of the data set: Inhibition constant (Ki) of the compounds to cathepsin B. As to conditions: read-out: CatB K1. The class given is biochemical. The method, then:
Determination of the Km and Vmax of Cathepsin B for Z-Arg-Arg-AMC
The solution of cathepsin B (human Liver) (50 μL, 2 nM) in assay buffer used above was mixed with 50 μL of solution of substrate Z-Arg-Arg-AMC in the assay buffer at different concentrations ([S]) (25 μM, 50 μM, 100 μM, 500 μM and 1 mM). The mixture was incubated at 37° C. and the fluorescence of the liberated aminomethylcoumarin at 460 nM using 355 nm excitation was measured at predetermined time points (0, 2, 4, 6, 8, and 10 minutes). The fluorescence intensity was plotted versus time and the reaction rates (v0) were calculated as the slope of the trend lines obtained by liner regression. Km and maximum reaction rate (Vmax-obs) was determined from the equation v0=Vmax[S]/(Km+[S]) and solved by nonlinear regression using GraphPad Prism 5. All measurements were in biological triplicate.
Determination of the Inhibition Constant (Ki) of the Compounds to Cathepsin B
The cathepsin B (human Liver) in assay buffer (25 μL) was mixed with the conjugate (25 μL) in 96-well plate. After the solution was mixed, the Z-Arg-Arg-AMC in assay buffer (50 μL) was added to the well, yielding a final cathepsin B concentration of 1 nM, conjugate concentration ([C]) of 15 nM or 5 μM, and substrate concentration ([S]) of 25 μM, 50 μM, 100 μM, 500 μM and 1 mM. The mixture was incubated at 37° C. and the fluorescence of the liberated aminomethylcoumarin at 460 nM using 355 nm excitation was measured at predetermined time points (0, 2, 4, 6, 8, and 10 minutes). The fluorescence intensity was plotted versus time with observed reaction rates (v0-obs) calculated as the slope of the trend lines obtained by liner regression. The observed rate constant (Kobs) and observed maximum reaction rate (Vmax-obs) was determined from the equation v0-obs=Vmax-obs [S]/(Kobs+[S]) and solved by nonlinear regression using GraphPad Prism 5. The Ki was calculated from the equation Kobs=Km (1+[C]/Ki). All measurements were in biological triplicate.

Data set [5] concerns PC-3 tumor. Conditions: mouse, in vivo.
In data set [6] the target is CatB (Homo sapiens, UniProt P07858). The data set can be described thus: CatB inhibition of GRPR-targeted agents. The data set is classed as biochemical. The method, then:
The Inhibition of Cathepsin B Activity by the Conjugates The phosphate buffer (0.1 M, pH=5.8) containing EDTA (1 mM), DTT (2.7 mM), and Brij®35 (0.03%) was prepared before the assay. […] The solution of cathepsin B (human Liver) in assay buffer (50 μL, 0.544 nM) was added to the mixture which was further incubated at 37° C. for 20 minutes. The fluorescence of the liberated aminomethylcoumarin at 460 nM using 355 nm excitation was measured and the IC50 of the cathepsin B inhibition versus the samples without the inhibitor was determined by nonlinear regression using GraphPad Prism 5.

[7] abbreviates: determined by radiometric analysis, 177Lu-labeled conjugate.

Marks after values point to notes of the source that are not given here.

This note sets out measurements from US12485191B2, “Radiopharmaceuticals and methods of use thereof” (BOARD OF REGENTS OF THE UNIVERSITY OF NEBRASKA, priority 2017, dated 2025).

T1 sequence (P30989 whole entry): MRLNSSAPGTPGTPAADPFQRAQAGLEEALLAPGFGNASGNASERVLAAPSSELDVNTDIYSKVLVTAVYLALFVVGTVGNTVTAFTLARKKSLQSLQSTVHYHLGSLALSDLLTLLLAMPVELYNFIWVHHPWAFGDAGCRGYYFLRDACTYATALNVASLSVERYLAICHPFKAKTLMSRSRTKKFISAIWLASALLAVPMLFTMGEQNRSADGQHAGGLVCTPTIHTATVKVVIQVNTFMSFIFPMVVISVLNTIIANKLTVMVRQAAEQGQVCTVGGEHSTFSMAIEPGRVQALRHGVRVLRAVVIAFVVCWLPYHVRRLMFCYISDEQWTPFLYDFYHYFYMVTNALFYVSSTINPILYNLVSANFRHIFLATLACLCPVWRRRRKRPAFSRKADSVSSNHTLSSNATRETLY

On to `Cc1cc(C)c(C(=O)OCC(=O)[C@H](CCCCNC(=O)CNC(=O)[C@@H](CO)NC(=O)[C@@H](CO)NC(=O)[C@@H](CO)NC(=O)Cn2cc(C[C@H](NC(=O)CN3CCN(CC(=O)O)CCN(CC(=O)O)CCN(CC(=O)O)CC3)C(=O)N[C@H](CO)C(=O)N[C@H](CO)C(=O)N[C@H](CO)C(=O)N[C@@H](CCCCN)C(=O)N3CCC[C@H]3C(=O)N(C)[C@@H](CCCNC(=N)N)C(=O)N[C@@H](CCCNC(=N)N)C(=O)N3CCC[C@H]3C(=O)N[C@@H](Cc3c(C)cc(O)cc3C)C(=O)N[C@H](C(=O)N[C@@H](CC(C)C)C(=O)O)C(C)(C)C)nn2)NC(=O)[C@H](Cc2ccccc2)NC(=O)OCc2ccccc2)c(C)c1` (177Lu complex, metal not drawn) [Compound 2f], for which the “retention in liver and kidney compared to 3b (in words)” value in data set [1] (HT-29 xenograft mice) is “significantly increased retention”. The “increase in retention in the tumors compared to control 3b” value in data set [1] (HT-29 xenograft, after 24 hours) was “nearly two-fold increase”. The “increase in tumor uptake” value in data set [1] (HT-29 xenograft, by 24 hours) is given as 25%.

Broadly, the IC50 is the point on the concentration scale where inhibition reaches its midpoint. Read a low IC50 as higher potency. Consider `Cc1cc(C)c(C(=O)OCC(=O)[C@H](CCCCn2cc(C[C@H](NC(=O)CN3CCN(CC(=O)O)CCN(CC(=O)O)CCN(CC(=O)O)CC3)C(=O)NCCC(=O)N[C@@H](CCCCN)C(=O)N3CCC[C@H]3C(=O)N(C)[C@@H](CCCNC(=N)N)C(=O)N[C@@H](CCCNC(=N)N)C(=O)N3CCC[C@H]3C(=O)N[C@@H](Cc3c(C)cc(O)cc3C)C(=O)N[C@H](C(=O)N[C@@H](CC(C)C)C(=O)O)C(C)(C)C)nn2)NC(=O)[C@H](Cc2ccccc2)NC(=O)OCc2ccccc2)c(C)c1` [Compound 2a], for which the IC50 in data set [2] worked out at 20 ± 2 nM. Besides, in data set [3] (setting [7]), the logD7.4 is −1.46 ± 0.02^b. In data set [4], the Ki came out at 25 ± 4 nM.

In data set [2], `Cc1cc(C)c(C(=O)OCC(=O)[C@H](CCCCNC(=O)Cn2cc(C[C@H](NC(=O)CN3CCN(CC(=O)O)CCN(CC(=O)O)CCN(CC(=O)O)CC3)C(=O)NCCC(=O)N[C@@H](CCCCN)C(=O)N3CCC[C@H]3C(=O)N(C)[C@@H](CCCNC(=N)N)C(=O)N[C@@H](CCCNC(=N)N)C(=O)N3CCC[C@H]3C(=O)N[C@@H](Cc3c(C)cc(O)cc3C)C(=O)N[C@H](C(=O)N[C@@H](CC(C)C)C(=O)O)C(C)(C)C)nn2)NC(=O)[C@H](Cc2ccccc2)NC(=O)OCc2ccccc2)c(C)c1` [Compound 2b] returned an IC50 of 22 ± 2 nM. For the same molecule, the logD7.4 in data set [3] (setting [7]) is on record as −1.49 ± 0.02^b. Besides, the Ki in data set [4] is 26 ± 5 nM.

In the case of `Cc1cc(C)c(C(=O)OCC(=O)[C@H](CCCCNC(=O)CNC(=O)[C@@H](CO)NC(=O)[C@@H](CO)NC(=O)[C@@H](CO)NC(=O)Cn2cc(C[C@H](NC(=O)CN3CCN(CC(=O)O)CCN(CC(=O)O)CCN(CC(=O)O)CC3)C(=O)NCCC(=O)N[C@@H](CCCCN)C(=O)N3CCC[C@H]3C(=O)N(C)[C@@H](CCCNC(=N)N)C(=O)N[C@@H](CCCNC(=N)N)C(=O)N3CCC[C@H]3C(=O)N[C@@H](Cc3c(C)cc(O)cc3C)C(=O)N[C@H](C(=O)N[C@@H](CC(C)C)C(=O)O)C(C)(C)C)nn2)NC(=O)[C@H](Cc2ccccc2)NC(=O)OCc2ccccc2)c(C)c1` [Compound 2d], the IC50 in data set [2] worked out at 20 ± 3 nM. The logD7.4 in data set [3] (setting [7]) is −1.79 ± 0.06^b. For the same molecule, the Ki in data set [4] stood at 73 ± 8 nM.

In data set [2], `Cc1cc(C)c(C(=O)OCC(=O)[C@H](CCCCNC(=O)CNC(=O)[C@@H](CO)NC(=O)[C@@H](CO)NC(=O)[C@@H](CO)NC(=O)Cn2cc(C[C@H](NC(=O)CN3CCN(CC(=O)O)CCN(CC(=O)O)CCN(CC(=O)O)CC3)C(=O)N[C@H](CO)C(=O)N[C@H](CO)C(=O)N[C@H](CO)C(=O)N[C@@H](CCCCN)C(=O)N3CCC[C@H]3C(=O)N(C)[C@@H](CCCNC(=N)N)C(=O)N[C@@H](CCCNC(=N)N)C(=O)N3CCC[C@H]3C(=O)N[C@@H](Cc3c(C)cc(O)cc3C)C(=O)N[C@H](C(=O)N[C@@H](CC(C)C)C(=O)O)C(C)(C)C)nn2)NC(=O)[C@H](Cc2ccccc2)NC(=O)OCc2ccccc2)c(C)c1` [Compound 2f] registered an IC50 of 18 ± 2 nM. Further, the Ki in data set [4] came out at 50 ± 13 nM.

`CC(C)C[C@H](NC(=O)CCC(=O)O)C(=O)N[C@@H](CCCNC(=N)N)C(=O)NCCn1cc(C[C@H](NC(=O)CN2CCN(CC(=O)O)CCN(CC(=O)O)CCN(CC(=O)O)CC2)C(=O)NCCOCCOCCOCCOCCC(=O)N[C@H](Cc2ccccc2)C(=O)N[C@@H](CCC(N)=O)C(=O)N[C@@H](Cc2c[nH]c3ccccc23)C(=O)N[C@@H](C)C(=O)N[C@H](C(=O)NCC(=O)N[C@@H](Cc2c[nH]cn2)C(=O)N[C@@H](CC(C)C)[C@@H](O)CC(=O)N[C@H](CC(C)C)C(N)=O)C(C)C)nn1` [^177Lu-C-ANT, metal not drawn] showed a logD7.4 in data set [3] (GRPR-targeted agents) of −1.9 ± 0.1. In data set [5], this molecule returned a tumor retention of 15%. For the same molecule, the “inhibition of catB (in words)” value in data set [6] is reported as “no inhibition”.
